Assay results reported in patent publication US4323567A, “Arylmalonamido-1-oxadethiacephalosporins” (priority 1976, dated 1982).
Read-outs that look alike come from different tables or passages of the source.

Assays:
Experiment in all cases: Minimal inhibitory concentration, nutrient agar plate
Klebsiella pneumoniae = assay type: cell-based; conditions: inoculum size 10^8, pH 7.0, read-out: Minimal inhibitory concentration
E. coli 377 = assay type: cell-based, Escherichia coli; conditions: Escherichia coli, 377, inoculum size 10^8, pH 7.0, read-out: Minimal inhibitory concentration
Ps. aeruginosa 25619 = assay type: cell-based, Pseudomonas aeruginosa; conditions: Pseudomonas aeruginosa, 25619, inoculum size 10^8, pH 7.0, read-out: Minimal inhibitory concentration
Ps. aeruginosa 24 = assay type: cell-based, Pseudomonas aeruginosa; conditions: Pseudomonas aeruginosa, 24, inoculum size 10^8, pH 7.0, read-out: Minimal inhibitory concentration
[1] = test system: Pseudomonas aeruginosa Denken; assay type: cell-based; conditions: inoculum size 10^8, pH 7.0, read-out: Minimal inhibitory concentration
E. coli JC-2 = assay type: cell-based; conditions: Escherichia coli, JC2, inoculum size 10^8, pH 7.0, read-out: Minimal inhibitory concentration
Proteus mirabilis PR-4 = assay type: cell-based; conditions: inoculum size 10^8, pH 7.0, read-out: Minimal inhibitory concentration
P. morganii No. 9 = assay type: cell-based, Proteus morganii; conditions: Morganella morganii, NO.9, inoculum size 10^8, pH 7.0, read-out: Minimal inhibitory concentration
Enterobacter cloacae 233 = assay type: cell-based; conditions: Enterobacter cloacae, 233, inoculum size 10^8, pH 7.0, read-out: Minimal inhibitory concentration
P. vulgaris CN-329 = assay type: cell-based; conditions: Proteus vulgaris, CN329, inoculum size 10^8, pH 7.0, read-out: Minimal inhibitory concentration
Escherichia coli H = assay type: cell-based; conditions: inoculum size 10^8, pH 7.0, read-out: Minimal inhibitory concentration
P. vulgaris No. 3 = assay type: cell-based; conditions: Proteus vulgaris, NO.3, inoculum size 10^8, pH 7.0, read-out: Minimal inhibitory concentration
Klebsiella sp. 363 = assay type: cell-based; conditions: inoculum size 10^8, pH 7.0, read-out: Minimal inhibitory concentration
E. coli 73 = assay type: cell-based, Escherichia coli; conditions: Escherichia coli, 73, inoculum size 10^8, pH 7.0, read-out: Minimal inhibitory concentration
[2] = test system: Serratia marsescens 13880; assay type: cell-based; conditions: Serratia, 13880, inoculum size 10^8, pH 7.0, read-out: Minimal inhibitory concentration
[3] = ester, in the presence of 5% horse serum, sodium salt
[4] = PR4, ester, in the presence of 5% horse serum, sodium salt
[5] = SP.363, ester, in the presence of 5% horse serum, sodium salt

CO[C@@]1(NC(=O)C(C(=O)Oc2ccc3c(c2)CCC3)c2ccc(O)cc2)C(=O)N2C(C(=O)O)=C(CSc3nnnn3C)CO[C@@H]21 (stereo partly drawn) [III-16, 7β-[α-P-hydroxyphenyl-α-(5-indanyl)oxycarvonylacetamido]-7β-methoxy-3-(1-methyltetrazol-5-yl)thiomethyl-1-oxadethia-3-cephem-4-carboxylic acid]
MIC (Klebsiella pneumoniae; [3]): 0.2 µg/mL
MIC (E. coli 377; [3]): 0.2 µg/mL
MIC (Ps. aeruginosa 25619; [3]): 12.5 µg/mL
MIC (Ps. aeruginosa 24; [3]): 25 µg/mL
MIC [1, 3]: 100 µg/mL
MIC (E. coli JC-2; [3]): 0.02 µg/mL
MIC (Proteus mirabilis PR-4; [4]): 0.39 µg/mL
MIC (P. morganii No. 9; [3]): 0.2 µg/mL
MIC (Enterobacter cloacae 233; [3]): 0.39 µg/mL
MIC (P. vulgaris CN-329; [3]): 0.78 µg/mL
MIC (Escherichia coli H; [3]): 0.1 µg/mL
MIC (P. vulgaris No. 3; [3]): 0.39 µg/mL
MIC (Klebsiella sp. 363; [5]): 0.2 µg/mL
MIC (E. coli 73; [3]): 0.78 µg/mL
MIC [2, 3]: 0.39 µg/mL

CC(=O)OCC1=C(C(=O)O)N2C(=O)[C@@H](NC(=O)Cc3cccs3)[C@H]2SC1 [Cefalotin, reference compound]
MIC (Klebsiella pneumoniae; as sodium salt): 1.6 µg/mL
MIC (E. coli 377; as sodium salt): > 100 µg/mL
MIC (Ps. aeruginosa 25619; as sodium salt): > 100 µg/mL
MIC (Ps. aeruginosa 24; as sodium salt): > 100 µg/mL
MIC ([1]; as sodium salt): > 100 µg/mL
MIC (E. coli JC-2; as sodium salt): 12.5 µg/mL
MIC (Proteus mirabilis PR-4; PR4, as sodium salt): 3.2 µg/mL
MIC (P. morganii No. 9; as sodium salt): > 100 µg/mL
MIC (Enterobacter cloacae 233; as sodium salt): > 100 µg/mL
MIC (P. vulgaris CN-329; as sodium salt): > 100 µg/mL
MIC (Escherichia coli H; as sodium salt): 3.2 µg/mL
MIC (P. vulgaris No. 3; as sodium salt): > 100 µg/mL
MIC (Klebsiella sp. 363; SP.363, as sodium salt): > 100 µg/mL
MIC (E. coli 73; as sodium salt): > 100 µg/mL
MIC ([2]; as sodium salt): > 100 µg/mL

CO[C@@]1(NC(=O)C(C(=O)O)c2ccc(O)cc2)C(=O)N2C(C(=O)O)=C(CSc3nnnn3C)CO[C@@H]21 (stereo partly drawn) [III-15, 7β-(α-carboxy-α-p-hydroxyphenylacetamido)-7α-methoxy-3-(1-methyltetrazol-5-yl)thiomethyl-1-oxadethia-3-cephem-4-carboxylic acid]
MIC (Klebsiella pneumoniae; as sodium salt): 0.2 µg/mL
MIC (E. coli 377; as sodium salt): 0.39 µg/mL
MIC (Ps. aeruginosa 25619; as sodium salt): 6.25 µg/mL
MIC (Ps. aeruginosa 24; as sodium salt): 50 µg/mL
MIC ([1]; as sodium salt): 100 µg/mL
MIC (E. coli JC-2; as sodium salt): 0.02 µg/mL
MIC (Proteus mirabilis PR-4; PR4, as sodium salt): 0.39 µg/mL
MIC (P. morganii No. 9; as sodium salt): 0.39 µg/mL
MIC (P. vulgaris CN-329; as sodium salt): 0.39 µg/mL
MIC (Escherichia coli H; as sodium salt): 0.1 µg/mL
MIC (P. vulgaris No. 3; as sodium salt): 0.39 µg/mL
MIC (Klebsiella sp. 363; SP.363, as sodium salt): 0.1 µg/mL
MIC (E. coli 73; as sodium salt): 0.78 µg/mL
MIC ([2]; as sodium salt): 1.56 µg/mL

CO[C@@]1(NC(=O)C(C(=O)O)c2ccc(OC(C)=O)cc2)C(=O)N2C(C(=O)O)=C(CSc3nnnn3C)CO[C@@H]21 (stereo partly drawn) [III-14, 7β-(α-carboxy-α-p-acetoxyphenylacetamido)-7α-methoxy-3-(1-methyltetrazol-5-yl)thiomethyl-1-oxadethia-3-cephem-4-carboxylic acid]
MIC (Klebsiella pneumoniae; as sodium salt): 0.39 µg/mL
MIC (E. coli 377; as sodium salt): 1.56 µg/mL
MIC (Ps. aeruginosa 25619; as sodium salt): 25 µg/mL
MIC (Ps. aeruginosa 24; as sodium salt): 100 µg/mL
MIC ([1]; as sodium salt): > 100 µg/mL
MIC (E. coli JC-2; as sodium salt): 0.39 µg/mL
MIC (Proteus mirabilis PR-4; PR4, as sodium salt): 0.2 µg/mL
MIC (P. morganii No. 9; as sodium salt): 0.39 µg/mL
MIC (Enterobacter cloacae 233; as sodium salt): 0.78 µg/mL
MIC (P. vulgaris CN-329; as sodium salt): 0.2 µg/mL
MIC (Escherichia coli H; as sodium salt): 0.2 µg/mL
MIC (P. vulgaris No. 3; as sodium salt): 0.39 µg/mL
MIC (Klebsiella sp. 363; SP.363, as sodium salt): 0.78 µg/mL
MIC (E. coli 73; as sodium salt): 1.56 µg/mL

CO[C@@]1(NC(=O)C(C(=O)Oc2ccc3c(c2)CCC3)c2ccccc2)C(=O)N2C(C(=O)O)=C(CSc3nnnn3C)CO[C@@H]21 (stereo partly drawn) [III-24, 7β-[α-(indan-5-yl)oxycarbonyl-α-phenylacetamido]-7α-methoxy-3-(1-methyltetrazol-5-yl)thiomethyl-1-oxadethia-3-cephem-4-carboxylic acid]
MIC (Klebsiella pneumoniae; [3]): 0.1 µg/mL
MIC (E. coli 377; [3]): 0.78 µg/mL
MIC (Ps. aeruginosa 25619; [3]): 12.5 µg/mL
MIC (Ps. aeruginosa 24; [3]): 50 µg/mL
MIC [1, 3]: 100 µg/mL
MIC (E. coli JC-2; [3]): 0.01 µg/mL
MIC (Proteus mirabilis PR-4; [4]): 0.1 µg/mL
MIC (P. morganii No. 9; [3]): 0.2 µg/mL
MIC (Enterobacter cloacae 233; [3]): 0.2 µg/mL
MIC (P. vulgaris CN-329; [3]): 0.1 µg/mL
MIC (Escherichia coli H; [3]): 0.025 µg/mL
MIC (P. vulgaris No. 3; [3]): 0.39 µg/mL
MIC (Klebsiella sp. 363; [5]): 0.05 µg/mL
MIC (E. coli 73; [3]): 0.39 µg/mL
MIC [2, 3]: 0.78 µg/mL

Cn1nnnc1SCC1=C(C(=O)O)N2C(=O)[C@@H](NC(=O)C(O)c3ccccc3)[C@H]2OC1 (stereo partly drawn) [(4), 7β-mandelamido3-(1-methyltetrazol-5-yl)thiomethyl-1-oxadethia-3-cephm-4-carboxylic acid, reference compound]
MIC (Klebsiella pneumoniae; as sodium salt): 0.2 µg/mL
MIC (E. coli 377; as sodium salt): 50 µg/mL
MIC (Ps. aeruginosa 25619; as sodium salt): > 100 µg/mL
MIC (Ps. aeruginosa 24; as sodium salt): > 100 µg/mL
MIC ([1]; as sodium salt): > 100 µg/mL
MIC (E. coli JC-2; as sodium salt): 0.2 µg/mL
MIC (Proteus mirabilis PR-4; PR4, as sodium salt): 0.2 µg/mL
MIC (P. morganii No. 9; as sodium salt): 100 µg/mL
MIC (Enterobacter cloacae 233; as sodium salt): > 100 µg/mL
MIC (P. vulgaris CN-329; as sodium salt): > 100 µg/mL
MIC (Escherichia coli H; as sodium salt): 0.1 µg/mL
MIC (Klebsiella sp. 363; SP.363, as sodium salt): > 100 µg/mL
MIC (E. coli 73; as sodium salt): > 100 µg/mL
MIC ([2]; as sodium salt): 100 µg/mL
